# In patent US9931347B2, “Pharmaceutical compound” (IOmet Pharma Ltd., priority 2013, dated 2018):
# Key:
# [1] = molecular target: T1, TDO (A172 human glioblastoma cells) (Homo sapiens, UniProt P48775); assay: A172 Kynurenine cell based assay; conditions: 500 μM L-tryptophan, 48 hours, kynurenine by Erhlich's reagent
# T1 construct: This assay utilised cancer cells which expressed either TDO or IDO; endogenous in cells; host or cells: A172 human glioblastoma cells
# Experimental: (§1) Exemplary compounds of the invention were prepared, and tested to determine their effect as TDO and/or IDO inhibitors. Two different assays were employed: 1. a cell-based assay for detecting the effect of test compounds on kynurenine production in two different cancer cell types. This assay utilised cancer cells which expressed either TDO or IDO and as such was used as a means of testing compound activity at these two enzymes in a cell-based context. 2. a TDO and IDO biochemical coupled assay which utilised recombinantly produced and purified TDO and IDO enzymes in combination with the enzyme formamidase. This coupled enzyme system allowed conversion of N-formylkynurenine produced by TDO or IDO activity to kynurenine which was then quantified by fluorescence following addition of Erhlich's Reagent The protocols for these are set out below.
# A172 (human glioblastoma) and SKOV3 (human ovarian adenocarcinoma) cells were seeded in a 96 well plate at 30,000 or 40,000 cells per well respectively in phenol red-free RPMI supplemented with 10% FCS, 2 mM L-glutamine and 500 μM L-tryptophan. IDO expression was induced in the SKOV3 cells by the addition of 500 ng/ml IFN-γ. Cells were incubated at 37° C. with or without the addition of test compound. After 48 hours, the cells were removed by centrifugation and Erhlich's reagent was added to the supernatant. The Erhlich's reagent was incubated for 5 minutes before the absorbance was read at 490 nm.
# [2] = molecular target: T2, IDO (SKOV3 human ovarian adenocarcinoma cells, IFN-γ induced) (Homo sapiens, UniProt P14902); assay: SKOV3 Kynurenine cell based assay; conditions: IDO induced by 500 ng/ml IFN-γ, 500 μM L-tryptophan, 48 hours
# T2 construct: IDO expression was induced in the SKOV3 cells by the addition of 500 ng/ml IFN-γ; endogenous in cells; host or cells: SKOV3 human ovarian adenocarcinoma cells, induced with IFN-γ
# T2 sequence (P14902 whole entry): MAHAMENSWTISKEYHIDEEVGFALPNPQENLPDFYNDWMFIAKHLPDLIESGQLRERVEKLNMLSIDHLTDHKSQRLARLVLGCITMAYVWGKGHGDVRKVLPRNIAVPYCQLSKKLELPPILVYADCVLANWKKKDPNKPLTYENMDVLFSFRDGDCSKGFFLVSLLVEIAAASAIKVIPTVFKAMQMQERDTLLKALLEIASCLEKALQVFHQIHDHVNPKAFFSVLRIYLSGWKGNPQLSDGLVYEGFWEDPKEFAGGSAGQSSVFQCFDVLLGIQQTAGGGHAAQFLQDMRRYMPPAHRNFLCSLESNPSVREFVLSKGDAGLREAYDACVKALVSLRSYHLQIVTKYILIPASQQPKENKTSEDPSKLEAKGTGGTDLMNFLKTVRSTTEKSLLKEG
# Experimental: as §1
# A172 (human glioblastoma) and SKOV3 (human ovarian adenocarcinoma) cells were seeded in a 96 well plate at 30,000 or 40,000 cells per well respectively in phenol red-free RPMI supplemented with 10% FCS, 2 mM L-glutamine and 500 μM L-tryptophan. IDO expression was induced in the SKOV3 cells by the addition of 500 ng/ml IFN-γ. Cells were incubated at 37° C. with or without the addition of test compound. After 48 hours, the cells were removed by centrifugation and Erhlich's reagent was added to the supernatant.
# T1 sequence (P48775 whole entry): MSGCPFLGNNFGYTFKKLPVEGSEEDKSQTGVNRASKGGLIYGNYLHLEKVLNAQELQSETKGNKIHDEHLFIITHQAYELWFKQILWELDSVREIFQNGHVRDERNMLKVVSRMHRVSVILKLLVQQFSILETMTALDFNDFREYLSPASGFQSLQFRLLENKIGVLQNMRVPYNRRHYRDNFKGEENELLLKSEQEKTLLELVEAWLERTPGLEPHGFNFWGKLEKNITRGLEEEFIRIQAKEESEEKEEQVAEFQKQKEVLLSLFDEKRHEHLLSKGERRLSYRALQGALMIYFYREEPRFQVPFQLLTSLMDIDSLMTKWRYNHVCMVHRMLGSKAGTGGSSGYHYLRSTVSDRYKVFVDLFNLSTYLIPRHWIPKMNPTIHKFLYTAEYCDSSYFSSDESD
A172 Kynurenine cell based assay pIC50 [1],SKOV3 Kynurenine cell based assay pIC50 [2],Compound
+ (+ = pIC50 4.00-4.99),+ (+ = pIC50 4.00-4.99),O=S(=O)(N1CCCC1)N1CCC(c2c[nH]c3ccccc23)CC1 [Compound 213]
++ (++ = pIC50 5.00-5.99),+ (+ = pIC50 4.00-4.99),CC(=O)N1CC=C(c2c[nH]c3cc(Cl)c(F)cc23)CC1 [Compound 228]
++ (++ = pIC50 5.00-5.99),+ (+ = pIC50 4.00-4.99),O=S(=O)(Cc1ccccc1)N1CCC(c2c[nH]c3cc(F)ccc23)CC1 [Compound 293]
+ (+ = pIC50 4.00-4.99),+ (+ = pIC50 4.00-4.99),CC(=O)N1CCC(c2c[nH]c3ccc(Cl)cc23)CC1 [Compound 238]
+ (+ = pIC50 4.00-4.99),+ (+ = pIC50 4.00-4.99),CS(=O)(=O)N1CCC(c2c[nH]c3cc(C(F)(F)F)ccc23)CC1 [Compound 234]
++ (++ = pIC50 5.00-5.99),+ (+ = pIC50 4.00-4.99),CS(=O)(=O)N1CC=C(c2c[nH]c3cc(F)cc(F)c23)CC1 [Compound 215]
++ (++ = pIC50 5.00-5.99),+− (+− = pIC50 <4.00),O=C1CCC2CN(c3c[nH]c4ccccc34)CCN12 (centres unmarked) [Compound 190]
+ (+ = pIC50 4.00-4.99),+ (+ = pIC50 4.00-4.99),COCCN1CC(C(=O)N2CCC(c3c[nH]c4cc(F)ccc34)CC2)CC1=O (centres unmarked) [Compound 283]
+ (+ = pIC50 4.00-4.99),+ (+ = pIC50 4.00-4.99),CC(=O)N1CCC(c2c[nH]c3cc(F)c(Cl)cc23)CC1 [Compound 252]
+ (+ = pIC50 4.00-4.99),+ (+ = pIC50 4.00-4.99),Cc1ccc2c(C3CCN(S(C)(=O)=O)CC3)c[nH]c2c1 [Compound 207]
+ (+ = pIC50 4.00-4.99),+ (+ = pIC50 4.00-4.99),Cn1nc(-c2ccccc2)cc1C(=O)N1CCC(c2c[nH]c3cc(F)ccc23)CC1 [Compound 279]
+ (+ = pIC50 4.00-4.99),+ (+ = pIC50 4.00-4.99),CC(=O)N1CCC(c2c[nH]c3cc(OCc4ccccc4)ccc23)CC1 [Compound 221]
+ (+ = pIC50 4.00-4.99),+ (+ = pIC50 4.00-4.99),CC(=O)N1CC=C(c2c[nH]c3ccc(C#N)cc23)CC1 [Compound 225]
+ (+ = pIC50 4.00-4.99),+ (+ = pIC50 4.00-4.99),CC(=O)N1CCC(c2c[nH]c3cc(C(F)(F)F)ccc23)CC1 [Compound 232]
++ (++ = pIC50 5.00-5.99),+− (+− = pIC50 <4.00),CC1(C)CN(c2c[nH]c3ccccc23)CCN1S(C)(=O)=O [Compound 191]
++ (++ = pIC50 5.00-5.99),+ (+ = pIC50 4.00-4.99),CN(C)S(=O)(=O)N1CCC(c2c[nH]c3cc(F)ccc23)CC1 [Compound 250]
++ (++ = pIC50 5.00-5.99),+ (+ = pIC50 4.00-4.99),CC(=O)N1CCN(c2c[nH]c3ccccc23)CC1(C)C [Compound 299]
++ (++ = pIC50 5.00-5.99),+− (+− = pIC50 <4.00),O=C1CN(c2c[nH]c3ccccc23)CCN1 [Compound 188]
+ (+ = pIC50 4.00-4.99),+ (+ = pIC50 4.00-4.99),CC(=O)N1CCC(c2c[nH]c3ccc(C(F)(F)F)cc23)CC1 [Compound 241]

A172 Kynurenine cell based assay pIC50 [1],SKOV3 Kynurenine cell based assay pIC50 [2],Compound
+ (+ = pIC50 4.00-4.99),+ (+ = pIC50 4.00-4.99),COc1cccc(C(=O)N2CCC(c3c[nH]c4cc(F)ccc34)CC2)n1 [Compound 273]
+ (+ = pIC50 4.00-4.99),+− (+− = pIC50 <4.00),CN1CC2CN(c3c[nH]c4ccccc34)CCN2C1=O (centres unmarked) [Compound 192]
+ (+ = pIC50 4.00-4.99),+ (+ = pIC50 4.00-4.99),CC(=O)N1CC=C(c2c[nH]c3c(F)cc(F)cc23)CC1 [Compound 231]
++ (++ = pIC50 5.00-5.99),+ (+ = pIC50 4.00-4.99),CC1(C)CC(c2c[nH]c3cc(F)ccc23)CCN1S(C)(=O)=O (centres unmarked) [Compound 317]
+ (+ = pIC50 4.00-4.99),+ (+ = pIC50 4.00-4.99),Fc1ccc2c(C3CCN(c4ccncc4)CC3)c[nH]c2c1 [Compound 301]
+ (+ = pIC50 4.00-4.99),+ (+ = pIC50 4.00-4.99),CC(=O)N1CCC(c2c[nH]c3cnccc23)CC1 [Compound 203]
+ (+ = pIC50 4.00-4.99),+ (+ = pIC50 4.00-4.99),CN(C)CCOc1ccc2c(C3=CCN(S(C)(=O)=O)CC3)c[nH]c2c1 [Compound 254]
++ (++ = pIC50 5.00-5.99),+ (+ = pIC50 4.00-4.99),CCCn1cc(C(=O)N2CCC(c3c[nH]c4cc(F)ccc34)CC2)c(C)n1 [Compound 280]
++ (++ = pIC50 5.00-5.99),++ (++ = pIC50 5.00-5.99),Fc1ccc2c(C3CCN(c4ccccn4)CC3)c[nH]c2c1 [Compound 193]
++ (++ = pIC50 5.00-5.99),+ (+ = pIC50 4.00-4.99),CCCC(=O)N1CCC(c2c[nH]c3cc(F)ccc23)CC1 [Compound 270]
+ (+ = pIC50 4.00-4.99),+ (+ = pIC50 4.00-4.99),CC(=O)N1CC=C(c2c[nH]c3cc(C(F)(F)F)ccc23)CC1 [Compound 223]
+ (+ = pIC50 4.00-4.99),+ (+ = pIC50 4.00-4.99),O=C(N1CCC(c2c[nH]c3cc(F)ccc23)CC1)C1(c2ccccc2)CC1 [Compound 281]
+ (+ = pIC50 4.00-4.99),+− (+− = pIC50 <4.00),CS(=O)(=O)N1CCC(c2c[nH]c3ccccc23)C(O)C1 (centres unmarked) [Compound 187]
+ (+ = pIC50 4.00-4.99),+ (+ = pIC50 4.00-4.99),O=C(CC1CC1)N1CCC(c2c[nH]c3cc(F)ccc23)CC1 [Compound 284]
+ (+ = pIC50 4.00-4.99),+ (+ = pIC50 4.00-4.99),CC(=O)N1CCC(c2c[nH]c3ccc(OCc4ccccc4)cc23)CC1 [Compound 208]
+ (+ = pIC50 4.00-4.99),+ (+ = pIC50 4.00-4.99),CS(=O)(=O)N1CCC(c2c[nH]c3ccc(C#N)cc23)CC1 [Compound 177]
+ (+ = pIC50 4.00-4.99),+ (+ = pIC50 4.00-4.99),CS(=O)(=O)N1CCC(c2c[nH]c3cc(Cl)ccc23)CC1 [Compound 244]
++ (++ = pIC50 5.00-5.99),+ (+ = pIC50 4.00-4.99),O=S(=O)(N1CCC(c2c[nH]c3cc(F)ccc23)CC1)C(F)(F)F [Compound 296]
